Measured values: US9023789B2, “Amylin analogs and pharmaceutical compositions thereof” (Novo Nordisk A/S, priority 2012, dated 2015)
≈ marks a conversion by molar mass, not a printed value. Like-named read-outs stand apart in the source and are kept apart here. Numbered stars: 1 amine (or outer) side, 2 acyl side, 3 side chain; on linkers, the order of the positions; unused ones are H or OH. Bridge positions count the residues as written; N and C are the ends. Side chains are listed from the residue outwards. Peptide text beside a SMILES is read from it. * marks the point of attachment. C20 diacid = O=C(O)CCCCCCCCCCCCCCCCCCC(=O)*; γGlu = O=C(O)[C@H](CCC(=O)[*:2])N[*:1]

Experiment: ASSAY (IV) determination of solubility
Format: physicochemical
How it was run: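 UPLC read-out of polypeptide concentration after centrifugation. Samples: aqueous polypeptide stock ([…]) + 100 mM buffer 1:1, glycylglycine pH 3.0–5.0 or bistrispropane pH 6.0–8.0; 18 h, RT.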

[1] = bistrispropane buffer, pH 6.5, read-out: Solubility pH 6.5 Concentration
[2] = bistrispropane buffer, pH 7.5, read-out: Solubility pH 7.5 Concentration
[3] = bistrispropane buffer, pH 6.0, read-out: Solubility pH 6.0 Concentration
[4] = bistrispropane buffer, pH 7.0, read-out: Solubility pH 7.0 Concentration
[5] = bistrispropane buffer, pH 8.0, read-out: Solubility pH 8.0 Concentration
[6] = glycylglycine buffer, pH 3.0, read-out: Solubility pH 3.0 Concentration
[7] = glycylglycine buffer, pH 4.0, read-out: Solubility pH 4.0 Concentration
[8] = glycylglycine buffer, pH 5.0, read-out: Solubility pH 5.0 Concentration

| Structure (SMILES) | solubility at 18 h [1] | solubility at 18 h [2] | solubility at 18 h [3] | solubility at 18 h [4] | solubility at 18 h [5] | solubility at 18 h [6] | solubility at 18 h [7] | solubility at 18 h [8] |
| --- | --- | --- | --- | --- | --- | --- | --- | --- |
| CC[C@H](C)[C@H](NC(=O)[C@H](C)NC(=O)CNC(=O)[C@H](Cc1ccccc1)NC(=O)[C@H](CC(N)=O)NC(=O)[C@@H]1CCCN1C(=O)[C@H](CO)NC(=O)[C@H](CO)NC(=O)[C@H](Cc1c[nH]cn1)NC(=O)[C@H](CCCNC(=N)N)NC(=O)[C@H](CC(C)C)NC(=O)[C@H](Cc1ccccc1)NC(=O)[C@H](CCC(=O)O)NC(=O)[C@H](C)NC(=O)[C@H](CC(C)C)NC(=O)[C@H](CCCNC(=N)N)NC(=O)[C@H](CCC(N)=O)NC(=O)[C@@H](NC(=O)[C@H](C)NC(=O)[C@@H]1CSSC[C@H](NC(=O)[C@H](CCCCN)NC(=O)COCCOCCNC(=O)COCCOCCNC(=O)CC[C@H](NC(=O)CCCCCCCCCCCCCCCCCCC(=O)O)C(=O)O)C(=O)N[C@@H](CC(N)=O)C(=O)N[C@@H]([C@@H](C)O)C(=O)N[C@@H](C)C(=O)N[C@@H]([C@@H](C)O)C(=O)N1)[C@@H](C)O)C(=O)N1CCC[C@H]1C(=O)N[C@@H](CO)C(=O)N[C@@H](CO)C(=O)N[C@H](C(=O)N[C@@H](CC(N)=O)C(=O)N[C@H](C(=O)NCC(=O)N[C@@H](CO)C(=O)N[C@@H](CC(N)=O)C(=O)N[C@H](C(=O)N[C@@H](Cc1ccc(O)cc1)C(N)=O)[C@@H](C)O)C(C)C)[C@@H](C)O [Example 19] | ≥ 200 µM | ≥ 200 µM | ≥ 200 µM | ≥ 200 µM | ≥ 200 µM | ≥ 200 µM | ≥ 200 µM | ≥ 200 µM |
| CC[C@H](C)[C@H](NC(=O)[C@H](C)NC(=O)CNC(=O)[C@H](Cc1ccccc1)NC(=O)[C@H](CC(N)=O)NC(=O)[C@@H]1CCCN1C(=O)[C@H](CO)NC(=O)[C@H](CO)NC(=O)[C@H](Cc1c[nH]cn1)NC(=O)[C@H](CCCNC(=N)N)NC(=O)[C@H](CC(C)C)NC(=O)[C@H](Cc1ccccc1)NC(=O)[C@H](CCC(=O)O)NC(=O)[C@H](C)NC(=O)[C@H](CC(C)C)NC(=O)[C@H](CCCNC(=N)N)NC(=O)[C@H](CCC(N)=O)NC(=O)[C@@H](NC(=O)[C@H](C)NC(=O)[C@@H]1CSSC[C@H](NC(=O)[C@H](CCCCN)NC(=O)CC[C@H](NC(=O)CCCCCCCCCCCCCCCCCCC(=O)O)C(=O)O)C(=O)N[C@@H](CC(N)=O)C(=O)N[C@@H]([C@@H](C)O)C(=O)N[C@@H](C)C(=O)N[C@@H]([C@@H](C)O)C(=O)N1)[C@@H](C)O)C(=O)N1CCC[C@H]1C(=O)N[C@@H](CO)C(=O)N[C@@H](CO)C(=O)N[C@H](C(=O)N[C@@H](CC(N)=O)C(=O)N[C@H](C(=O)NCC(=O)N[C@@H](CO)C(=O)N[C@@H](CCC(=O)O)C(=O)N[C@H](C(=O)N[C@@H](Cc1ccc(O)cc1)C(N)=O)[C@@H](C)O)C(C)C)[C@@H](C)O [Example 22] ({C20 diacid-γGlu}-KCNTATCATQRLAEFLRHSSPNFGAIPSSTNVGSETY-NH2; disulfide 2-7) | ≥ 200 µM | ≥ 200 µM | 195 µM (≈ 860 µg/mL) | ≥ 200 µM | ≥ 200 µM | ≥ 200 µM | ≥ 200 µM | ≥ 200 µM |
| CC[C@H](C)[C@H](NC(=O)[C@H](C)NC(=O)CNC(=O)[C@H](Cc1ccccc1)NC(=O)[C@H](CC(N)=O)NC(=O)[C@@H]1CCCN1C(=O)[C@H](CO)NC(=O)[C@H](CO)NC(=O)[C@H](Cc1c[nH]cn1)NC(=O)[C@H](CCCNC(=N)N)NC(=O)[C@H](CC(C)C)NC(=O)[C@H](Cc1ccccc1)NC(=O)[C@H](CC(N)=O)NC(=O)[C@H](C)NC(=O)[C@H](CC(C)C)NC(=O)[C@H](CCCNC(=N)N)NC(=O)[C@H](CCC(N)=O)NC(=O)[C@@H](NC(=O)[C@H](C)NC(=O)[C@@H]1CSSC[C@H](NC(=O)[C@H](CCCCN)NC(=O)CC[C@H](NC(=O)CCCCCCCCCCCCCCCCCCC(=O)O)C(=O)O)C(=O)N[C@@H](CC(N)=O)C(=O)N[C@@H]([C@@H](C)O)C(=O)N[C@@H](C)C(=O)N[C@@H]([C@@H](C)O)C(=O)N1)[C@@H](C)O)C(=O)N1CCC[C@H]1C(=O)N[C@@H](CO)C(=O)N[C@@H](CO)C(=O)N[C@H](C(=O)N[C@@H](CC(N)=O)C(=O)N[C@H](C(=O)NCC(=O)N[C@@H](CO)C(=O)N[C@@H](CCC(=O)O)C(=O)N[C@H](C(=O)N[C@@H](Cc1ccc(O)cc1)C(N)=O)[C@@H](C)O)C(C)C)[C@@H](C)O [Example 23] | ≥ 200 µM | ≥ 200 µM | ≥ 200 µM | ≥ 200 µM | ≥ 200 µM | ≥ 200 µM | ≥ 200 µM | ≥ 200 µM |
| CC[C@H](C)[C@H](NC(=O)[C@H](C)NC(=O)CNC(=O)[C@H](Cc1ccccc1)NC(=O)[C@H](CC(N)=O)NC(=O)[C@@H]1CCCN1C(=O)[C@H](CO)NC(=O)[C@H](CO)NC(=O)[C@H](Cc1c[nH]cn1)NC(=O)[C@H](CCCNC(=N)N)NC(=O)[C@H](CC(C)C)NC(=O)[C@H](Cc1ccccc1)NC(=O)[C@H](CC(N)=O)NC(=O)[C@H](C)NC(=O)[C@H](CC(C)C)NC(=O)[C@H](CCCNC(=N)N)NC(=O)[C@H](CCC(N)=O)NC(=O)[C@@H](NC(=O)[C@H](C)NC(=O)[C@@H]1CSSC[C@H](NC(=O)[C@H](CCCCN)NC(=O)COCCOCCNC(=O)COCCOCCNC(=O)CC[C@H](NC(=O)CCCCCCCCCCCCCCCCCCC(=O)O)C(=O)O)C(=O)N[C@@H](CC(N)=O)C(=O)N[C@@H]([C@@H](C)O)C(=O)N[C@@H](C)C(=O)N[C@@H]([C@@H](C)O)C(=O)N1)[C@@H](C)O)C(=O)N1CCC[C@H]1C(=O)N[C@@H](CO)C(=O)N[C@@H](CO)C(=O)N[C@H](C(=O)N[C@@H](CC(N)=O)C(=O)N[C@H](C(=O)NCC(=O)N[C@@H](CO)C(=O)N[C@@H](CC(N)=O)C(=O)N[C@H](C(=O)N[C@@H](Cc1ccc(O)cc1)C(N)=O)[C@@H](C)O)C(C)C)[C@@H](C)O [Example 24] | ≥ 200 µM | ≥ 200 µM | ≥ 200 µM | ≥ 200 µM | ≥ 200 µM | ≥ 200 µM | ≥ 200 µM | ≥ 200 µM |

More lines, now with the values ahead:

| solubility at 18 h [1] | solubility at 18 h [2] | solubility at 18 h [3] | solubility at 18 h [4] | solubility at 18 h [5] | solubility at 18 h [6] | solubility at 18 h [7] | solubility at 18 h [8] | Structure (SMILES) |
| --- | --- | --- | --- | --- | --- | --- | --- | --- |
| ≥ 200 µM | ≥ 200 µM | ≥ 200 µM | ≥ 200 µM | ≥ 200 µM | ≥ 200 µM | ≥ 200 µM | ≥ 200 µM | CC[C@H](C)[C@H](NC(=O)[C@H](C)NC(=O)CNC(=O)[C@H](Cc1ccccc1)NC(=O)[C@H](CC(N)=O)NC(=O)[C@@H]1CCCN1C(=O)[C@H](CO)NC(=O)[C@H](CO)NC(=O)[C@H](Cc1c[nH]cn1)NC(=O)[C@H](CCCNC(=N)N)NC(=O)[C@H](CC(C)C)NC(=O)[C@H](Cc1ccccc1)NC(=O)[C@H](CCC(=O)O)NC(=O)[C@H](C)NC(=O)[C@H](CC(C)C)NC(=O)[C@H](CCCNC(=N)N)NC(=O)[C@H](CCC(N)=O)NC(=O)[C@@H](NC(=O)[C@H](C)NC(=O)[C@@H]1CSSC[C@H](NC(=O)[C@@H](N)CCCCNC(=O)CC[C@H](NC(=O)CCCCCCCCCCCCCCCCCCC(=O)O)C(=O)O)C(=O)N[C@@H](CC(N)=O)C(=O)N[C@@H]([C@@H](C)O)C(=O)N[C@@H](C)C(=O)N[C@@H]([C@@H](C)O)C(=O)N1)[C@@H](C)O)C(=O)N1CCC[C@H]1C(=O)N[C@@H](CO)C(=O)N[C@@H](CO)C(=O)N[C@H](C(=O)N[C@@H](CC(N)=O)C(=O)N[C@H](C(=O)NCC(=O)N[C@@H](CO)C(=O)N[C@@H](CC(N)=O)C(=O)N[C@H](C(=O)N1CCC[C@H]1C(N)=O)[C@@H](C)O)C(C)C)[C@@H](C)O [Example 12] (H-K([γGlu-C20 diacid])CNTATCATQRLAEFLRHSSPNFGAIPSSTNVGSNTP-NH2; disulfide 2-7 (inferred); N-terminus assumed) |
| ≥ 200 µM | ≥ 200 µM | ≥ 200 µM | ≥ 200 µM | ≥ 200 µM | ≥ 200 µM | ≥ 200 µM | ≥ 200 µM | CC[C@H](C)[C@H](NC(=O)[C@H](C)NC(=O)CNC(=O)[C@H](Cc1ccccc1)NC(=O)[C@H](CC(N)=O)NC(=O)[C@@H]1CCCN1C(=O)[C@H](CO)NC(=O)[C@H](CO)NC(=O)[C@H](Cc1c[nH]cn1)NC(=O)[C@H](CCCNC(=N)N)NC(=O)[C@H](CC(C)C)NC(=O)[C@H](Cc1ccccc1)NC(=O)[C@H](CCC(=O)O)NC(=O)[C@H](C)NC(=O)[C@H](CC(C)C)NC(=O)[C@H](CCCNC(=N)N)NC(=O)[C@H](CCC(N)=O)NC(=O)[C@@H](NC(=O)[C@H](C)NC(=O)[C@@H]1CSSC[C@H](NC(=O)[C@H](CCCCN)NC(=O)CC[C@H](NC(=O)CCCCCCCCCCCCCCCCCCC(=O)O)C(=O)O)C(=O)N[C@@H](CC(N)=O)C(=O)N[C@@H]([C@@H](C)O)C(=O)N[C@@H](C)C(=O)N[C@@H]([C@@H](C)O)C(=O)N1)[C@@H](C)O)C(=O)N1CCC[C@H]1C(=O)N[C@@H](CO)C(=O)N[C@@H](CO)C(=O)N[C@H](C(=O)N[C@@H](CC(N)=O)C(=O)N[C@H](C(=O)NCC(=O)N[C@@H](CO)C(=O)N[C@@H](CCCNC(=N)N)C(=O)N[C@H](C(=O)N[C@@H](Cc1ccc(O)cc1)C(N)=O)[C@@H](C)O)C(C)C)[C@@H](C)O [Example 16] ({C20 diacid-γGlu}-KCNTATCATQRLAEFLRHSSPNFGAIPSSTNVGSRTY-NH2; disulfide 2-7) |
